Measurements from patent US12268676B2, “Antiviral applications of picolinic acid and its derivatives” (INDIAN INSTITUTE OF SCIENCE, priority 2021, dated 2025).
“And” between values parts separate entries of the source, which are not always exact repeats. Equal entries are not always repeated.

Legend:
[1] = tested on: PR8 WT virus particles; set-up: species or system Influenza A virus
[2] = tested on: Adenovirus 5 expressing eGFP; assay: Adenovirus 5 eGFP infection of HEK cells, flow cytometry; assay type: cell-based, Adenovirus Serotype 5; conditions: 2 mM PA, 10 MOI, 24 hr
[3] = tested on: PR8 WT virus (strain A/Puerto Rico/8/1934 H1N1); assay type: cell-based, Influenza A virus
[4] = mouse, in vivo
[5] = tested on: SARS-CoV-2 spike protein; assay: SARS-CoV-2 spike induced syncytia assay; assay type: cell-based; conditions: Severe acute respiratory syndrome coronavirus 2, Vero C1008, 24 h, read-out: inhibition of syncytia (area, percentage of untreated control)
[6] = tested on: A549 cells; assay: Cytotoxicity of PA, Alamar Blue cell viability; assay type: cell-based, human
Method: Cytotoxicity of picolinic acid (PA) was tested by incubating human lung epithelial cells (A549 cells) with increasing concentrations of PA for up to 72 hrs and cell viability was measured at every 12 hr time intervals using Alamar Blue cell viability reagent (FIG. 1A). A549 cells were procured from ATCC, Manassas, Va., USA.
A549 cells were seeded in 96-well cell culture dishes and 24 hr later treated with 0.02, 0.2, 2, and 20 mM PA in triplicates. Cells were then incubated at 37° C., 5% CO2, and cytotoxicity was measured at 12, 24, 36, 48, 60, and 72 hr post-treatment using AlamarBlue™ Cell Viability Reagent (DAL 1025, Thermo Fisher) as per manufacturer's instructions.

[7] = tested on: CVB3; assay: CVB3 multi-dose infection, plaque assay of supernatants; assay type: cell-based, Coxsackie virus B3; conditions: Vero cells, increasing concentrations of PA, 0.1 MOI, 48 hr p.i.
Description: Further, Vero cells were pre-treated with increasing concentrations of PA as indicated and infected with 0.1 MOI CVB3 in the presence of drugs. 48 hr p.i, cell culture supernatants were used to quantify infectious virus by plaque assay.

[8] = tested on: Coxsackie virus B3; assay: Coxsackie virus B3 infection of HeLa cells, western blot for VP1; assay type: cell-based
Method: The effects of PA against non-enveloped viruses were tested to see if PA would be effective against non-enveloped viruses as well. To this end, HeLa cells were either pre-treated for 3 hr with 2 mM PA, infected with 10 MOI Coxsackie virus B3 in presence of PA and collected 3 hr later (−3 hr); or treated during infection (T0); or virus and PA were incubated together for 1 hr and used for infection (1 hr virus+PA).
Coxsackie virus B3 infection: To study early effects of PA, HeLa cells were pre-treated for 3 hr, infected with 10 MOI CVB3, and collected at 3 hr post infection. Alternatively, cells were infected and treated simultaneously (T0) and collected after 3 hr. Also, a mixture of virus and drug incubated for 1 hr (1 hr PA+Virus) was used for infection to test the effects of PA on virus particles. No additional drug was added here post infection. Expression levels of VP1 protein was then detected by western blot analysis.

[9] = tested on: Japanese Encephalitis Virus (JEV) clinical strain P20778; assay: JEV infection, western blot of flavivirus envelope protein; assay type: cell-based; conditions: 2 mM PA
[10] = tested on: TM4 mycobacteriophage; assay: Effect of drug on TM4 mycobacteriophage; assay type: cell-based; conditions: 10 MOI
Method: (§1) Since most of the naked viruses tested were not inhibited by PA, whether PA would be effective against TM4 mycobacteriophages. M. smegmatis cells in a 48 well plate were treated with increasing concentrations of PA as indicated and OD600 measurements were taken periodically up to 24 hr. […] For the antiviral assay, 1 mM PA was either added at the start of experiment or 3 hr prior to infection. In either case, there was no protection from TM4 mycobacteriophage induced cell death (FIG. 12, panel G).
Effect of drug on TM4 mycobacteriophage: To study the effect of the drug on TM4 phage growth and activity, 7H9 broth supplemented with ADC and CaCl2 was prepared and inoculated with 100 μL of log-phase secondary bacterial culture (OD 1-2) per 5 mL of the media. 1 mM of the drug was added to culture tubes at the appropriate time (either at the start of the experiment or 3 hr before adding the phage in the mid-log phase). The cultures were then incubated at 37° C. with rotary shaking at 180 pm. For phage-treated samples, a 10 MOI TM4 mycobacteriophage was added at a specified interval of the mid-log phase. […] Readings were taken using a spectrophotometer (Jenway 7205 UV/Visible Spectrophotometer) at 600 nm against a media blank.

[11] = tested on: M. smegmatis cells; assay: Bacterial toxicity assay, OD600; assay type: cell-based, Mycobacterium smegmatis; conditions: up to 24 hr, least concentration tested
Method: as §1
Bacterial toxicity assay: PA stock solution of 1M concentration was prepared in sterile deionized water and diluted to obtain different concentrations (1 mM, 5 mM, 10 Mm, 20 mM, and 40 mM), in a 48-well plate. A total of 2×10^5 cells of M. smegmatis were added to each of the wells. The 48-well plate was placed in a rotary shaker incubator at 37° C. for 24 h. Readings were taken periodically using a Tecan Spark multi-mode plate reader at 600 nm.

With `O=C(O)c1ccccn1` [PA, pyridine-2-carboxylic acid] the “virion structural integrity by TEM compared to untreated control” value [1] was “severe disruption of viral envelope”, the “GFP positive cells, treated vs untreated” value [2] was “Almost no differences” and the “decrease in NP positive cells” value [3] was “no decrease”. For the same compound, the “decrease in number of NP positive cells compared to virus control” value [3] was 75% and 40%, the “expression levels of virus NP by western blot, virus control vs PA treated” value [3] was “no difference” and the “toxicity (bodyweight changes over 9 days)” value [4] was “toxic”. The “body weight vs PBS treated control” value ([4]; ip) was “no differences in body weight”, the “decrease in total body weight” value ([4]; ip) was 10-12% and the inhibition at 1000 µM [5] was 70%. The inhibition at 2000 µM [5] was 80%, the cell viability ([6]; 20 mM PA, 36 hr post treatment) was “loss of cell viability” and the “drug concentration non-toxic to cells” value ([6]; over the period of 72 hr) was “up to 2 mM”. The “infectious virus in supernatants (plaque assay)” value [7] was “did not imply any differences”, the “effect on virus entry (VP1 western blot)” value ([8]; incubation of virus with drug 1 hr prior to infection) was “did not have any effects” and the “effect on virus entry (VP1 western blot)” value ([8]; pre-treatment 3 hr with 2 mM PA, 10 MOI) was “did not have any effects”. For the same compound, the “effect on virus entry (VP1 western blot)” value ([8]; treatment at the time of infection (T0)) was “did not have any effects”, the “flavivirus envelope protein by western blot” value ([9]; 0.1 MOI, 48 hr post infection (FIG. 7K)) was “inhibition” and the “decrease in the flavivirus envelope protein expression (western blot)” value ([9]; VeroE6 cells, 48 hr post infection, normalized against actin) was 0.75 fold. For the same compound, the “protection from TM4 mycobacteriophage induced cell death” value ([10]; 1 mM PA added 3 hr prior to infection) was “no protection”, the “protection from TM4 mycobacteriophage induced cell death” value ([10]; 1 mM PA added at the start of experiment) was “no protection” and the “non-toxic concentration (OD600)” value [11] was 1 mM.
